The text below walks through data of EP1266655A1, “ENTERIC GRANULAR PREPARATIONS OF HARDLY WATER SOLUBLE DRUGS CHARACTERIZED BY CONTAINING WATER-REPELLENT COMPONENT” (SHIONOGI & CO., LTD., priority 2000, dated 2001).

≈ marks a conversion by molar mass, not a printed value.

The series can be described thus: Solubility of Compound A in several test solutions. Format: physicochemical. An excerpt: Compound A was used as an insoluble active ingredient in the following references and examples.

Regarding `CC1(C)[C@H]2C[C@H](C/C=C\CCCC(=O)O)[C@@H](NC(=O)c3csc4ccc(O)cc34)[C@@H]1C2` [Compound A, (Z)-7-[(1R,2R,3S,5S)-2-(5-hydroxybenzo[b]thiophen-3-ylcarbonylamino)-10-norpinan-3-yl]-5-heptenoic acid], the solubility at 3 h is, setting by setting: (Water, 3 hours, final pH 5.81) 5.56 µg/mL (≈ 12.6 µM); (jp-2 solution, JP-2 Sol., 3 hours, final pH 6.84) 81.1 µg/mL (≈ 184 µM); (ph 6.0 test solution, pH6.0, 3 hours, final pH 6.08) 15.2 µg/mL (≈ 34.4 µM); (ph 7.8 test solution, pH7.8, 3 hours, final pH 7.6) 488 µg/mL (≈ 1100 µM); (ph 8.0 test solution, pH8.0, 3 hours, final pH 7.76) 653 µg/mL (≈ 1480 µM); (ph 8.5 test solution, pH8.5, 3 hours, final pH 8.29) 6200 µg/mL (≈ 14000 µM). The solubility at 6 h was found to be 5.93 µg/mL (≈ 13.4 µM) (Water, 6 hours, final pH 5.81); 81.7 µg/mL (≈ 185 µM) (jp-2 solution, JP-2 Sol., 6 hours, final pH 6.84); 15.6 µg/mL (≈ 35.3 µM) (ph 6.0 test solution, pH6.0, 6 hours, final pH 6.08); 489 µg/mL (≈ 1110 µM) (ph 7.8 test solution, pH7.8, 6 hours, final pH 7.6); 676 µg/mL (≈ 1530 µM) (ph 8.0 test solution, pH8.0, 6 hours, final pH 7.76); 6220 µg/mL (≈ 14100 µM) (ph 8.5 test solution, pH8.5, 6 hours, final pH 8.29).

What is called solubility is the dissolved amount per volume that the medium holds. High values mean much dissolved substance, low ones little dissolved substance.
